# Assay results as given in PubChem BioAssay AID1963826 (Molecular Pharmacology Branch, DTP, NCI, 2024).
# System: 926638-142-R-J1-PDC complex spheroid viability
# Test: Anticancer human tumor 926638-142-R-J1-PDC patient-derived endometrial carcinoma cell line growth inhibition [POLQ]
# Conditions: for IC50: curve of first compound; for viability, T/C: stronger effect = lower value
# In short: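 Patient-derived tumour cells were co-cultured with HUVEC and mesenchymal stem cells as multicellular spheroids at 37 °C. They were treated with POLQ inhibitors (novobiocin, ART-558, RP6685) alone or combined with other agents. Top concentrations were at or near clinical Cmax (otherwise 10 microM; SN-38 at 1 microM), decreasing in half-log steps.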
# [1] = second compound 0.0316 µM, first compound 0.0316 µM
# [2] = second compound 0.0316 µM, first compound 0.1 µM
# [3] = second compound 0.0316 µM, first compound 0.316 µM
# [4] = second compound 0.0316 µM, first compound 1 µM
# [5] = second compound 0.1 µM, first compound 0.0316 µM
# [6] = second compound 0.1 µM, first compound 0.1 µM
# [7] = second compound 0.1 µM, first compound 0.316 µM
# [8] = second compound 0.1 µM, first compound 1 µM
# [9] = second compound 0.316 µM, first compound 0.0316 µM
# [10] = second compound 0.316 µM, first compound 0.1 µM
# [11] = second compound 0.316 µM, first compound 0.316 µM
# [12] = second compound 0.316 µM, first compound 1 µM
# [13] = second compound 1 µM, first compound 0.0316 µM
# [14] = second compound 1 µM, first compound 0.1 µM
# [15] = second compound 1 µM, first compound 0.316 µM
# [16] = second compound 1 µM, first compound 1 µM
# [17] = second compound 3.16 µM, first compound 0.0316 µM
# [18] = second compound 3.16 µM, first compound 0.1 µM
# [19] = second compound 3.16 µM, first compound 0.316 µM
# [20] = second compound 3.16 µM, first compound 1 µM
# [21] = second compound 10 µM, first compound 0.0316 µM
# [22] = second compound 10 µM, first compound 0.1 µM
# [23] = second compound 10 µM, first compound 0.316 µM
# [24] = second compound 10 µM, first compound 1 µM
# 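Note: spheroids exposed to drugs for one week before readout.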
# 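Throughout, for viability, T/C: percent viability relative to DMSO vehicle control wells set as 100%.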
smiles,measurement,setting,value
CCc1c2c(nc3ccc(O)cc13)-c1cc3c(c(=O)n1C2)COC(=O)[C@]3(O)CC + COC1C(OC(N)=O)C(O)C(Oc2ccc3c(O)c(NC(=O)c4ccc(O)c(CC=C(C)C)c4)c(=O)oc3c2C)OC1(C)C,IC50,second compound 0.0316 µM,8.81 nM
same,IC50,second compound 0.1 µM,12.6 nM
same,IC50,second compound 0.316 µM,11.9 nM
same,IC50,second compound 1 µM,10.7 nM
same,IC50,second compound 3.16 µM,12.1 nM
same,IC50,second compound 10 µM,13.6 nM
same,"viability, T/C","second compound 0.0316 µM, first compound 0.00316 µM",79.4%
same,"viability, T/C","second compound 0.0316 µM, first compound 0.01 µM",42%
same,"viability, T/C",[1],30.3%
same,"viability, T/C",[2],19.2%
same,"viability, T/C",[3],7.89%
same,"viability, T/C",[4],4.74%
same,"viability, T/C","second compound 0.1 µM, first compound 0.00316 µM",65.7%
same,"viability, T/C","second compound 0.1 µM, first compound 0.01 µM",54.1%
same,"viability, T/C",[5],35.9%
same,"viability, T/C",[6],17.1%
same,"viability, T/C",[7],14.9%
same,"viability, T/C",[8],4.58%
same,"viability, T/C","second compound 0.316 µM, first compound 0.00316 µM",68.6%
same,"viability, T/C","second compound 0.316 µM, first compound 0.01 µM",54%
same,"viability, T/C",[9],32%
same,"viability, T/C",[10],19.1%
same,"viability, T/C",[11],9.36%
same,"viability, T/C",[12],4.49%
same,"viability, T/C","second compound 1 µM, first compound 0.00316 µM",61.8%
same,"viability, T/C","second compound 1 µM, first compound 0.01 µM",53.5%
same,"viability, T/C",[13],30.4%
same,"viability, T/C",[14],20.2%
same,"viability, T/C",[15],8.68%
same,"viability, T/C",[16],5.03%
same,"viability, T/C","second compound 3.16 µM, first compound 0.00316 µM",57.8%
same,"viability, T/C","second compound 3.16 µM, first compound 0.01 µM",49.7%
same,"viability, T/C",[17],40.5%
same,"viability, T/C",[18],17.7%
same,"viability, T/C",[19],8.91%
same,"viability, T/C",[20],5.57%
same,"viability, T/C","second compound 10 µM, first compound 0.00316 µM",59.1%
same,"viability, T/C","second compound 10 µM, first compound 0.01 µM",57.4%
same,"viability, T/C",[21],35.7%
same,"viability, T/C",[22],21.5%
same,"viability, T/C",[23],9.84%
same,"viability, T/C",[24],6.1%
CC1COCCN1c1cc(C2(O)CC3CCC(C2)O3)c2cnn(-c3ccn[nH]3)c2n1 (centres undefined) + COC1C(OC(N)=O)C(O)C(Oc2ccc3c(O)c(NC(=O)c4ccc(O)c(CC=C(C)C)c4)c(=O)oc3c2C)OC1(C)C,IC50,second compound 0.0316 µM,212 nM
same,IC50,second compound 0.1 µM,204 nM
same,IC50,second compound 0.316 µM,200 nM
same,IC50,second compound 1 µM,217 nM
same,IC50,second compound 3.16 µM,222 nM
same,IC50,second compound 10 µM,181 nM
same,"viability, T/C",[1],106%
same,"viability, T/C",[2],74.5%
same,"viability, T/C",[3],35.6%
same,"viability, T/C",[4],17.5%
same,"viability, T/C","second compound 0.0316 µM, first compound 3.16 µM",7.23%
same,"viability, T/C","second compound 0.0316 µM, first compound 10 µM",1.82%
same,"viability, T/C",[5],108%
same,"viability, T/C",[6],64.9%
same,"viability, T/C",[7],46%
same,"viability, T/C",[8],12.8%
same,"viability, T/C","second compound 0.1 µM, first compound 3.16 µM",6.56%
same,"viability, T/C","second compound 0.1 µM, first compound 10 µM",1.94%
same,"viability, T/C",[9],102%
same,"viability, T/C",[10],69.1%
same,"viability, T/C",[11],37.4%
same,"viability, T/C",[12],16.5%
same,"viability, T/C","second compound 0.316 µM, first compound 3.16 µM",7.59%
same,"viability, T/C","second compound 0.316 µM, first compound 10 µM",1.6%
same,"viability, T/C",[13],86.9%
same,"viability, T/C",[14],75.8%
same,"viability, T/C",[15],36.8%
same,"viability, T/C",[16],12.9%
same,"viability, T/C","second compound 1 µM, first compound 3.16 µM",7.07%
same,"viability, T/C","second compound 1 µM, first compound 10 µM",1.87%
same,"viability, T/C",[17],90.5%
same,"viability, T/C",[18],77.7%
same,"viability, T/C",[19],36.5%
same,"viability, T/C",[20],15%
same,"viability, T/C","second compound 3.16 µM, first compound 3.16 µM",6.73%
same,"viability, T/C","second compound 3.16 µM, first compound 10 µM",2%
same,"viability, T/C",[21],91.4%
same,"viability, T/C",[22],69.4%
same,"viability, T/C",[23],31.1%
same,"viability, T/C",[24],13%
same,"viability, T/C","second compound 10 µM, first compound 3.16 µM",7.88%
same,"viability, T/C","second compound 10 µM, first compound 10 µM",1.74%
